Data set [1] relates to Candida albicans, ATCC 90028. Format: cell-based. Here is the method:
(§1) The antimicrobial properties of synthesized peptides against bacteria and fungi were evaluated using minimum inhibitory concentration (MIC) and minimum bactericidal/fungicidal concentration (MBC/MFC) tests (Wiegand et al. 2008). The tested species include Streptococcus mutans, UA159; Lacticaseibacillus casei, American Type Culture Collection (ATCC) 334; and Candida albicans, ATCC 90028. A 10 μL aliquot of bacterial culture (10^6 CFU/mL) in brain heart infusion (BHI) broth was added to 100 μL serial two-fold dilutions of experimental solutions. The optical density values at 660 nm were measured after 18 h of incubation. To determine the MBC, 10 μL of bacterial culture was taken from the well of MIC, and wells before and after the well of MIC, and transferred to blood agar. The test protocol for fungi was similar: the culture medium was a Roswell Park Memorial Institute (RPMI) 1640 Medium, the absorbance was measured at 520 nm, and Sabouraud dextrose agar was used for the MFC test. Chlorhexidine and medium were used as the positive and negative controls.

The test system of data set [2] is Streptococcus mutans, UA159. The data set can be described thus: MIC and MBC/MFC test. The data set is classed as cell-based. Here is the method:
as §1

For data set [3], the system named is Lacticaseibacillus casei, ATCC 334. The data set can be described thus: MIC and MBC/MFC test. The data set is classed as cell-based. Here is the method: as §1
In data set [4] the test system is Actinomyces naeslundii ATCC 12104. Format: cell-based. Here is the method: (§2) Common oral pathogenic bacterial strains were selected for this study. Streptococcus mutans ATCC 35668, Streptococcus sobrinus ATCC 33478, Lactobacillus acidophilus ATCC 9224, Lactobacillus rhamnosus ATCC10863, Actinomyces naeslundii ATCC 12104, Enterococcus faecalis ATCC 29212, Porphyromonas gingivalis ATCC 33277, and Actinobacillus actinomycetemcomitans ATCC 29523. All the strains were cultured anaerobically.
(§3) Brain heart infusion (BHI) medium was used for culture of S. mutans, S. sobrinus, L. acidophilus, L. rhamnosus, A. naeslundii, E. faecalis, and A. actinomycetemcomitans, whereas p.g. broth was used for culture of Porphyromonas gingivalis. The standard dilution method in a 96-well microplate was conducted in order to evaluate the antimicrobial efficacy of GAPI. Each well was filled with […] GAPI dilutions. In addition, serial twofold dilutions in concentrations ranging from 1280 μM to 1.25 μM were prepared. A 10 μL bacterial culture (10^6 CFU/mL) was added. Chlorhexidine was used as positive control, and medium was used as negative control. The plates were then anaerobically incubated at 37° C. for 24 h. The absorbance was measured at a wavelength of 660 nm in order to analyze the growth of microorganisms. […] The MBC endpoint was the lowest concentration at which 99.9% of the bacterial population was killed, which thus means the absence of bacteria. The morphology of the bacteria and fungi treated with synthesized peptides was analysed using transmission electron microscopy (TEM) (Philips CM100, Philips/FEI Corporation, Eindhoven, Holland). The sample was prepared following a previous study (Niu et al. 2021d). Copper grids were used to contain the semi-thin sections of bacteria/fungi for examination.

The subject of data set [5] is Enterococcus faecalis ATCC 29212. Format: cell-based. Here is the method:
as §2, §3

The subject of data set [6] is Streptococcus sobrinus ATCC 33478. The data set is classed as cell-based. Here is the method:
as §2, §3

In data set [7] the test system is Human gingival fibroblast (HGF-1) cells. The data set can be described thus: Biocompatibility, cytotoxicity by Cell Counting Kit-8 Assay. Format: cell-based. Here is the method:
The biocompatibility of GAPI was evaluated by cytotoxicity assay using Cell Counting Kit-8 Assay (CCK-8, Apexbio, MA, USA) (Zhang et al. 2019). Human gingival fibroblast (HGF-1, Otwo Biotech Inc., China) cells (1×10^5/mL) were cultured and treated with GAPI. The cells cultured with the only medium were negative controls. The optical density values indicating the number of viable cells was measured at 450 nm after 24 h of incubation.
A general note: Tetrazolium assays rely on reduction of a dye to a coloured formazan, in cell work by metabolically active cells.

The subject of data set [8] is S. mutans biofilm (ATCC 35668) on dentine blocks. The data set can be described thus: Antibiofilm effect on dentine, biofilm remineralization cycling model (CLSM, CFU). The following applies: 160 μM GAPI, 7 days cycling, n = 8. Format: cell-based, Streptococcus mutans. The source says:
Dentine slices, 2 mm thick, were cut from sound extracted third molars. Ultra-fine 4000-grit sandpaper was used to polish these slices. Slices with defects were eliminated based on a stereomicroscope observation. A total of forty dentine slices were selected. Each slice was separated into two blocks and assigned to two groups. Nail varnish was used to coat half of the blocks as an internal control. S. mutans American Type Culture Collection 35668 was utilized in the present study. All the dentine blocks were placed into S. mutans culture (10^8 cells/mL) in a brain-heart infusion (BHI) broth containing 5% glucose to generate artificial caries. After a 3-day anaerobic culture at 37° C., the depth of the caries lesion surface was around 96 μm, which was observed using micro-computed tomography (micro-CT). […]
CLSM (Fluoview FV 1000, Olympus, Tokyo, Japan) was utilized to capture images to assess the S. mutans biofilm viability (n=8 for each group). […] The red-green ratio represented the dead-live ratio calculated using Image J version 1.53 t (National Institute of Health, Bethesda, MD, USA).
To determine the S. mutans biofilm growth kinetics, the colony-forming units (CFUs) were counted (n=8 for each group). […] All the plates were cultured anaerobically for 48 h at 37° C. before the CFUs were counted. The log CFU was calculated for a statistical analysis.

The mark [9] stands for this setting: Streptococcus mutans (UA159), μM.

Molecules are shown by their SMILES. Values after ≈ are worked out from the molar mass of the structure shown. Where a SMILES comes first, the peptide text is derived from it.

For orientation: MBC means the lowest tested concentration that kills the bacteria rather than only halting them. Low readings indicate greater bactericidal potency, high ones weaker bactericidal potency. For `CC(C)[C@@H]1NC(=O)[C@H](CCCN=C(N)N)NC(=O)[C@H](Cc2ccccc2)NC(=O)[C@@H](NC(=O)[C@H](Cc2c[nH]c3ccccc23)NC(=O)[C@H](CCCN=C(N)N)NC(=O)[C@H](CCCN=C(N)N)NC(=O)c2cc(O)c(O)c(O)c2)CSSC[C@@H](C(=O)N[C@@H](CCCN=C(N)N)C(=O)O)NC(=O)[C@H](CCCCN)NC(=O)[C@H](CCCN=C(N)N)NC(=O)[C@H](Cc2ccc(O)cc2)NC(=O)[C@@H]2CSSC[C@H](NC1=O)C(=O)N[C@@H](Cc1ccc(O)cc1)C(=O)N[C@@H](CCCN=C(N)N)C(=O)NCC(=O)N[C@@H](Cc1ccccc1)C(=O)N2` [GAPI, Gallic-Acid-Polyphemusin-I] (HELM PEPTIDE1{[O=C(c1cc(O)c(O)c(O)c1)[*:2]].R.R.W.C.F.R.V.C.Y.R.G.F.C.Y.R.K.C.R}$PEPTIDE1,PEPTIDE1,5:R3-18:R3|PEPTIDE1,PEPTIDE1,9:R3-14:R3$$$V2.0), the minimum inhibitory concentration is 80 µM (≈ 209 µg/mL) in data set [1], 40 µM (≈ 104 µg/mL) in data set [2] (Streptococcus mutans) and 40 µM (≈ 104 µg/mL) in data set [3]. Further, the MBC/MFC in data set [1] (μM) is 40; in data set [2] (setting [9]), 80; in data set [3] (μM) it was 160. For the same compound, the MIC in data set [1] (μM) was 20; in data set [2] (setting [9]), 40; in data set [3] (μM), 40; in data set [4] (ATCC 12104, anaerobic, 24 h) it was 160 µM (≈ 417 µg/mL); in data set [5] (ATCC 29212, anaerobic, 24 h) it was 160 µM (≈ 417 µg/mL); in data set [6] (ATCC 33478, anaerobic, 24 h) it was 80 µM (≈ 209 µg/mL). In addition, the minimum bactericidal concentration (MBC) is 640 µM (≈ 1670 µg/mL) in data set [4] (ATCC 12104), 640 µM (≈ 1670 µg/mL) in data set [5] (ATCC 29212) and 320 µM (≈ 834 µg/mL) in data set [6] (ATCC 33478). Moreover, the “optical density values (450 nm, viable cells) versus negative control” value in data set [7] (80, 160, 320 and 640 μM, HGF-1 cells, 24 h) is given as “no significant difference”. Further, the “cytotoxicity to HGF-1 cells” value in data set [7] (CCK-8, 24 h) is listed as “low cytotoxicity”. Besides, the “Viability: Dead-to-live ratio” value in data set [8] (CLSM) is listed as 0.77±0.13. In data set [8], the “Kinectics: Log10 CFU” value amounted to 7.45±0.32.

Values taken from patent publication US20250090441A1, “ANTI-CARIES PEPTIDES WITH ANTIMICROBIAL AND REMINERALIZING PROPERTIES AND METHODS THEREOF” (THE UNIVERSITY OF HONG KONG, priority 2023, published 2025).
